The values below come from patent US20100041903A1, “Ozonized Surfactant” (ERC TECHNOLOGY INC., priority 2006, published 2010).

Series [1] is described as follows: Surface-active property test (contact angle on polyvinyl chloride plate). As to conditions: Surfactant not subjected to ozone treatment; 1 wt % aqueous solution on polyvinyl chloride plate. It counts as physicochemical. As to the method: The surface-active properties of ozonized surfactants were determined in the following manner. 1 wt % of aqueous solutions of surfactants (Tween 80, polyethylene glycol 10 oleyl ether, and polyethylene glycol 20 oleyl ether (manufactured by Wako Pure Chemical Industries, Ltd.)) were prepared, and each of the solutions was dropped on a polyvinyl chloride plate to measure a contact angle (θ) using a contact angle meter CA-VP (manufactured by Kyowa Interface Science Co., Ltd.). The same measurement was carried out for the ozonized surfactants obtained in Examples 1, 2 and 4.

Series [2] concerns Trichophyton mentagrophytes. Put plainly: Minimum inhibitory concentration test. Format: cell-based. The following applies: 96 H, 25° C., Sabouraud medium, 1 × 10^5/mL. The source says: (§1) In order to check the antibacterial and antifungal performance of the ozonized surfactant according to the present invention, bacteriostatic and bactericidal effects of the ozonized surfactant against five kinds of microorganisms were examined. The five kinds of target microorganisms were Staphyrococcus aureus as a prokaryotic gram-positive bacterium, Escherichia coli as a prokaryotic gram-negative bacterium, Saccharomyces cerevisiae and Trichophyton mentagrophytes as fungi which are eukaryotic microorganisms, and Cladosporium cladosporioides. One loopful of each strain was inoculated in a medium optimum for the strain, and cultured under culture conditions optimum for the strain to prepare a cell suspension for inoculation. […] 9 mL of each medium shown in Table 1 was dispensed into L-shaped test tubes for a biophotorecorder, and was then sterilized by steam. […] 0.1 mL of the cell suspension for inoculation was inoculated into the graduated dilution series to be tested (the initial number of cells of each microorganism is shown in Table 1). […] In the following tests, they were sterilized in the same manner. [table] […] Another graduated dilution series was prepared between the temporary minimum inhibitory concentration and the concentration of the ozonized surfactant nearest to the temporary minimum inhibitory concentration, at which turbidity occurred. Then, the same operation as described above was again carried out. […] It is to be noted that this MIC test against these five kinds of microorganisms was carried out also using, as a control, the surfactant solution not subjected to ozone treatment.

A further series concerns Escherichia coli. As to the kind of experiment: Minimum inhibitory concentration test. It counts as cell-based. As to conditions: 24 H, 30° C., Bouillon liquid medium, 1 × 10^7/mL.
Excerpt: as §1

For series [3], the system named is Cladosporium cladosporioides. Put plainly: Minimum inhibitory concentration test. Format: cell-based. As to conditions: 96 H, 25° C., Sabouraud medium, 1 × 10^5/mL.
Excerpt: as §1

The next series relates to Staphyrococcus aureus. As to the kind of experiment: Minimum inhibitory concentration test. It counts as cell-based. The following applies: 24 H, 37° C., Bouillon liquid medium, 1 × 10^7/mL.
Excerpt: as §1

The next series has as its system Saccharomyces cerevisiae. As to the kind of experiment: Minimum inhibitory concentration test. It counts as cell-based. The following applies: 48 H, 28° C., YM liquid medium, 1 × 10^6/mL.
Excerpt: as §1

For the substance “Polyethylene glycol 10 oleyl ether [Polyethylene glycol (10) oleyl ether]”, the “Contact angle (θ)” value in series [1] is reported as 51.9 degree (°). Further, the minimum inhibitory concentration (in series [2]; in the series with Escherichia coli; in series [3]; in the series with Staphyrococcus aureus; with Saccharomyces cerevisiae) was more than 1% by weight throughout.

For “polyethylene glycol 20 oleyl ether [Polyethylene glycol (20) oleyl ether]”, the “Contact angle (θ)” value in series [1] is listed as 59.4 degree (°).
